Results published in PMC8238948, “Potent inhibitors of toxic alpha-synuclein identified via cellular time-resolved FRET biosensors” (NPJ Parkinson's Disease, 2021).
Where a name gives a salt, the structure may show the parent alone.

Legend:
labeled αSN (monomeric) [1] = target: T1, labeled αSN (monomeric) (Homo sapiens, UniProt P37840, E130C/T54C); assay: smFRET measurements of αSN monomer conformation; details: αSN labeled at 54-130C; +20μM compound; mean ± standard deviation
T1 construct: made in house; host or cells: Escherichia coli BL21(DE3)
Method: (§1) SmFRET experiments were performed using two different labeled αSN constructs (residues 9–72 and residues 54–130) that report on intra-monomeric FRET (e.g., monomer conformation) of the N-terminal and C-terminal domains of αSN. […] We were not able to evaluate RO with smFRET, due to interactions of RO with the AlexaFluor-594 label.
(§2) Single-molecule FRET measurements were carried out using ~30 pM of labeled αSN in 20 mM Tris pH 7.4 and 50 mM NaCl in 8-chambered Nunc coverslips (ThermoFisher) passivated with poly(ethylene glycol) poly(L-lysine) to reduce protein adsorption to the chambers. Measurements were made on a MicroTime 200 time-resolved confocal microscope (Picoquant) as described previously. Laser power was adjusted to ~30 μW before sample illumination. Fluorescence emission was collected through the objective and passed through a 150-μm diameter pinhole. Photons were separated by an HQ585LP dichroic in combination with ET525/50M and HQ600LP filters and detected by avalanche photodiodes. Photon traces were collected in 1-ms time bins for 1 h. A cutoff of 25 counts/ms was applied to discriminate between bursts arising from fluorescently labeled protein and background noise. The FRET efficiency (Eeff) was calculated using the SymphoTime 64 software. SmFRET histograms were fit with Gaussian distributions to determine the peak Eeff values. Each measurement was carried out three times and mean Eeff values are the average and SD of these measurements (Supplementary Table 2). Alignment of instrument and analysis were verified using smFRET reference standards consisting of 10, 14, and 18 base pair dsDNA labeled with Alexa 488 and Alex 594 with their 5’ and 3’ ends.

labeled αSN (monomeric) [2] = target: T2, labeled αSN (monomeric) (Homo sapiens, UniProt P37840, S9C/T72C); assay: smFRET measurements of αSN monomer conformation; details: αSN labeled at 9C-72C; +20μM compound; mean ± standard deviation
T2 construct: made in house; host or cells: Escherichia coli BL21(DE3)
Method: as §1, §2

3FY-αSN (monomeric αSN) = target: T3, 3FY-αSN (monomeric αSN) (Homo sapiens, UniProt P37840); assay: Protein-observed fluorine NMR (PrOF NMR); assay type: binding; details: for 19F chemical shifts / resonance broadening on titration: 20 μM 3FY-αSN, compound titration
T3 construct: made in house
Method: PrOF NMR provides a perturbation-free method to monitor αSN conformation and structure through the incorporation of F19-labeled 3-fluoro-Tyrosine into recombinant protein[89].
Experiments were run on a Bruker 600-MHz Avance NEO (6001), equipped with a 5 mm triple resonance cryoprobe. 3FY-αSN was diluted in PBS, pH = 7.4 buffer by the addition of D2O and 0.1% trifluoroacetic acid (TFA) to final concentrations of 5 and 0.07%, respectively, in a total NMR sample volume of 150 µL. Two one-dimensional ^19F NMR spectra were taken of the protein sample at an O1P of −75 ppm, NS = 16, D1 = 1 s, and AQ = 0.5 s (TFA reference set to −75.25 ppm) and an O1P of −136 ppm, NS = 3072, D1 = 0.6 s, and AQ = 0.05 s (protein resonances). Ligand stock solutions of 1–10 mM were prepared in DMSO and titrated into the protein solutions (20 μM). As a control experiment, in a separate NMR tube, DMSO was added to a final concentration of 0.5, 0.6, 0.8, 1.5, and 2.5% to control for any solvent-induced chemical shifts. For each concentration, a TFA reference spectrum and a protein 1D-^19F NMR spectrum were acquired.
Supplemental Figure 20. PrOF NMR experiments with hit compounds and fluorinated αSN support a lack of binding to monomeric αSN. (a) 19F NMR spectrum and assignments of 3FY- αSN. The resulting spectrum is consistent with the spectrum of monomeric 3FY- αSN reported by 4. Corresponding assignments are used from that report. Stacked 19F NMR spectra with an increasing concentration of (b) Ro 90-7501 and (c) DEM HCl […]
compound binding to monomeric αSN. An exception is at high concentrations of Ro 90-7501(110 μM) a small degree of chemical shift perturbation is observed.
(§3) (1 picture or pasted object on this page, not shown here)

[3] = system: SH-SY5Y cells transfected with unlabeled WT αSN; assay: αSN expression levels in SH-SY5Y cells (immunoblot); assay type: cell-based, human; details: 1 μM compound; relative to DMSO
Method: We investigated one potential MOA for compounds RO and DEM in our SH-SY5Y cytotoxicity model. These compounds might rescue αSN-induced cytotoxicity by modulating αSN expression[81],[82]. SH-SY5Y cells transfected with empty-vector or unlabeled WT αSN were treated with DMSO, RO, or DEM at 1 μM concentration. […] This effect may be due to prolonged survival of cells expressing higher levels of αSN, which would be lost in DMSO-treated samples or as a result of shifting monomer:oligomer ratios. Studies have shown that there is a fine balance in αSN expression, where too much can lead to aggregation, but αSN expression can also be neuroprotective[81],[83]–[86].
Supplemental Figure 15. Rescue of αSN-induced cytotoxicity in SH-SY5Y cells is not driven by suppression of αSN expression. One potential MOA for our hit compounds could be reduction of αSN levels, thereby alleviating the αSN induced cytotoxicity. (a) Treatment of SH-SY5Y cells expressing either αSN or […]
DMSO for both RO and DEM. (b) Quantification of a via densitometry analysis.
as §3

[4] = system: inter-protomeric and intra-protomeric αSN FRET biosensors in HEK293 cells; assay: Pilot HTS of the LOPAC library, fluorescence lifetime (FLT) of cellular αSN FRET biosensors; assay type: cell-based, human; details: 10 µM compound, 90 min; hit = FLT change >5 SD
Method: Prior to each pilot HTS, FLT and emission spectrum were measured to verify signal level, basal FRET, coefficient of variance (CV), and similarity index. For each HTS, cells were dispensed into compound plates—1536-well (10 µL/well)—and incubated with the compounds (10 µM) or dimethyl sulfoxide (DMSO; 1%) for 90 min. FLT measurements were acquired with the FLT-PR. After deconvolving the instrument response function, a single exponential fit was used to determine the FLT for both the αSN cellular FRET biosensor (τDA) and the donor-only control biosensor (τD). FRET efficiency was determined by Eq. 1. CV was determined from control plates (N = 384 wells).
Fluorescent compounds (FC) were flagged using a spectral similarity index filter, which evaluates the ratio of intensity from two bandwidths that span the donor emission spectrum and are excluded as potential false positives[45],[46],[49],[51],[66]. […] Compounds that changed FLT by >5 standard deviations (SD) were considered hits (Fig. 5, red data points).
On each day of screening, the compound plates were equilibrated to room temperature (RT; 25 °C). The cells were harvested from the 100-mm plates by incubating with TrypLE (Invitrogen) for 2 min, washed three times in PBS by centrifugation at 200 × g, and filtered using 70-μm cell strainers (BD Falcon). Cell viability prior to screen was assessed using a trypan blue assay and confirmed to be >80%. Cells were diluted to 1.5E6 cells/mL. Expression of GFP-αSN and the αSN biosensors were confirmed by fluorescence microscopy prior to each screen (EvosFL-Auto microscope, Thermo Fisher Scientific, USA). During screening, cells (50 μL/well for 384-well; 10 μL/well for 1536-well) were dispensed by a Multidrop Combi liquid dispenser (Thermo, Pittsburg, PA, USA) into the assay plates containing the compounds and allowed to incubate at RT for 90 min before recording with the FLT-PR or SUPR (both instruments manufactured by Fluorescence Innovations Inc., both owned and provided by Photonic Pharma LLC), as described previously[46].
Interfering compounds were flagged as potential false positives by a set of stringent FC filters based on spectral analysis of each well from the LOPAC screen[45],[46]. After removal of FCs, a histogram of the FLT distribution from all compounds in the screen was plotted and fit to a Gaussian curve to obtain the mean (µ) and SD (σ). A hit was defined as a compound that attenuated the FLT efficiency by >5σ relative to the mean µ (Supplementary Fig. 12).

Row | SMILES | Eeff (smFRET efficiency) (labeled αSN (monomeric) [1]) | Eeff (smFRET efficiency) (labeled αSN (monomeric) [2]) | 19F chemical shift perturbation at high concentration (3FY-αSN (monomeric αSN); 20 µM 3FY-αSN, 110 μM compound) | 19F chemical shifts / resonance broadening on titration (3FY-αSN (monomeric αSN)) | total αSN expression levels [3] | identified as hit in the LOPAC screen [4]
1 | COC(=O)C1=C(C)NC(C)=C([N+](=O)[O-])C1c1ccccc1C(F)(F)F (racemic) [BAY, (±)-Bay K 8644] | 0.58 ± 0.005 | 0.54 ± 0.013 | – | – | – | –
2 | Nc1ccc(-c2nc3ccc(-c4nc5ccc(N)cc5[nH]4)cc3[nH]2)cc1 [RO, Ro 90–7501] | – | – | small degree of chemical shift perturbation | no significant chemical shifts or resonance broadening | no change | –
3 | CN(C)[C@@H]1C(O)=C(C(N)=O)C(=O)[C@@]2(O)C(O)=C3C(=O)c4c(O)ccc(Cl)c4[C@@H](O)[C@H]3C[C@@H]12 [DEM, Demeclocycline HCl] | 0.60 ± 0.008 | 0.55 ± 0.005 | – | no significant chemical shifts or resonance broadening | no change | identified
